Measured values taken from US20220101973A1, “PERSONALIZED TREATMENT TOOL” (Roche Diabetes Care, Inc., priority 2018, published 2022).
Entries after “also recorded” stand apart in the source; their conditions may differ. Where two headings read alike, the source gives them in different places.

Columns and labels:
type 2 diabetes patients [1] = conditions: cited from earlier work
type 2 diabetes patients [2] = test: Hyperglycemia Efficacy Index (HEI) of diabetes drugs, from review of phase III trials with 7- or 8-point SMBG; format: in vivo, human; conditions: median ratio of effect on FBG vs effect on PPG; drugs from the same class have the same HEI
Text: Such results can be e.g. assessed via scientific publications or regulatory documents which disclose the results for the trials. Suitable scientific publications describing such trials for individual drugs can be, e.g., identified via PubMed. In an embodiment, the trials have assessed large cohorts of diabetes patients such as type 2 diabetes patients and report 7- or 8 point self-monitoring blood glucose data with determinations carried out in the fasting state, in the pre-prandial state and in the post-prandial state. In an embodiment, the trials include only type 2 diabetes patients without major comorbidities.
For establishing the database, the published information on the effects under (d1), (d2), and the risk under (d4) shall be taken into account. The indices under (d3), can be determined based on the published information for the analyzed trials.
In an embodiment, the Hyperglycemia Efficacy Index (HEI) for a drug is the ratio of the effect of said drug on fasting glucose to the effect of said drug on post-prandial glucose (i.e. the effect under (d1) and the effect under (d2)).

Dulaglutide
Hypo Risk Index (HRI) (type 2 diabetes patients [1]; 0.75 mg): HRI 1 - low
Hypo Risk Index (HRI) (type 2 diabetes patients [1]; 1.5 mg): HRI 1 - low

CCOc1cc(CC(=O)N[C@@H](CC(C)C)c2ccccc2N2CCCCC2)ccc1C(=O)O [Repaglinide]
Hyperglycemia Efficacy Index (HEI) (type 2 diabetes patients [2]): HEI 0.62
Hypo Risk Index (HRI) (type 2 diabetes patients [1]; 1.5-12 mg): HRI 2 - medium

CN(C)C(=N)N=C(N)N [Metformin]
Hyperglycemia Efficacy Index (HEI) (type 2 diabetes patients [2]): HEI 0.59
Hypo Risk Index (HRI) (type 2 diabetes patients [1]; ≥1000 mg): HRI 1 - low

CCOc1ccc(Cc2cc([C@@H]3O[C@H](CO)[C@@H](O)[C@H](O)[C@H]3O)ccc2Cl)cc1 [Dapagliflozin]
Hypo Risk Index (HRI) (type 2 diabetes patients [1]; 10 mg): HRI 1 - low

CCCCCCCCCCCCCCCC(=O)N[C@@H](CCC(=O)NCCCC[C@H](NC(=O)[C@H](C)NC(=O)[C@H](C)NC(=O)[C@H](CCC(N)=O)NC(=O)CNC(=O)[C@H](CCC(=O)O)NC(=O)[C@H](CC(C)C)NC(=O)[C@H](Cc1ccc(O)cc1)NC(=O)[C@H](CO)NC(=O)[C@H](CO)NC(=O)[C@@H](NC(=O)[C@H](CC(=O)O)NC(=O)[C@H](CO)NC(=O)[C@@H](NC(=O)[C@H](Cc1ccccc1)NC(=O)[C@@H](NC(=O)CNC(=O)[C@H](CCC(=O)O)NC(=O)[C@H](C)NC(=O)[C@@H](N)Cc1cnc[nH]1)[C@@H](C)O)[C@@H](C)O)C(C)C)C(=O)N[C@@H](CCC(=O)O)C(=O)N[C@@H](Cc1ccccc1)C(=O)N[C@H](C(=O)N[C@@H](C)C(=O)N[C@@H](Cc1c[nH]c2ccccc12)C(=O)N[C@@H](CC(C)C)C(=O)N[C@H](C(=O)N[C@@H](CCCNC(=N)N)C(=O)NCC(=O)N[C@@H](CCCNC(=N)N)C(=O)NCC(=O)O)C(C)C)[C@@H](C)CC)C(=O)O [Liraglutide]
Hypo Risk Index (HRI) (type 2 diabetes patients [1]; 1.2 mg): HRI 1 - low
Hypo Risk Index (HRI) (type 2 diabetes patients [1]; 1.8 mg): HRI 1 - low

Cc1ccc(S(=O)(=O)NC(=O)NN2CC3CCCC3C2)cc1 (stereo not drawn) [Gliclazide]
Hypo Risk Index (HRI) (type 2 diabetes patients [1]; 80-320 mg): HRI 2 - moderate; also recorded: HRI 2 - medium

Cc1ccc([C@@H]2O[C@H](CO)[C@@H](O)[C@H](O)[C@H]2O)cc1Cc1ccc(-c2ccc(F)cc2)s1 [Canagliflozin]
Hypo Risk Index (HRI) (type 2 diabetes patients [1]; 100 mg): HRI 1 - low
Hypo Risk Index (HRI) (type 2 diabetes patients [1]; 300 mg): HRI 1 - low

OC[C@H]1O[C@@H](c2ccc(Cl)c(Cc3ccc(O[C@H]4CCOC4)cc3)c2)[C@H](O)[C@@H](O)[C@@H]1O [Empagliflozin]
Hyperglycemia Efficacy Index (HEI) (type 2 diabetes patients [2]): HEI 0.56
Hypo Risk Index (HRI) (type 2 diabetes patients [1]; 10 mg): HRI 1 - low
Hypo Risk Index (HRI) (type 2 diabetes patients [1]; 25 mg): HRI 1 - low

CCC1=C(C)CN(C(=O)NCCc2ccc(S(=O)(=O)NC(=O)N[C@H]3CC[C@H](C)CC3)cc2)C1=O [Glimepiride]
Hypo Risk Index (HRI) (type 2 diabetes patients [1]; 1-8 mg): HRI 2 - moderate; also recorded: HRI 2 - medium

Exenatide LAR
Hyperglycemia Efficacy Index (HEI) (type 2 diabetes patients [2]): HEI 0.76
Hypo Risk Index (HRI) (type 2 diabetes patients [1]; 2 mg): HRI 1 - low

C[C@H]1O[C@H](O[C@H]2[C@H](O)[C@@H](O)[C@@H](O[C@H]3[C@H](O)[C@@H](O)C(O)O[C@@H]3CO)O[C@@H]2CO)[C@H](O)[C@@H](O)[C@@H]1N[C@H]1C=C(CO)[C@@H](O)[C@H](O)[C@H]1O (stereo partly drawn) [Acarbose]
Hyperglycemia Efficacy Index (HEI) (type 2 diabetes patients [2]): HEI 0.54
Hypo Risk Index (HRI) (type 2 diabetes patients [1]; 30 mg): HRI 1 - low
Hypo Risk Index (HRI) (type 2 diabetes patients [1]; 300 mg): HRI 1 - low
